Key:
[1] = target: T1, Human GPR120 short form (short splice variant, NM_001195755.1) (Homo sapiens, UniProt Q5NUL3); test: Human GPR120 Calcium Flux Assay; type: cell-based; conditions: HEK-293 cells, 4200 cells/well, read-out: Human GPR120 Calcium Flux Assay Procedure B EC50
T1 construct: expressed in transfected cells; host or cells: HEK293
T1 sequence (Q5NUL3 1-361): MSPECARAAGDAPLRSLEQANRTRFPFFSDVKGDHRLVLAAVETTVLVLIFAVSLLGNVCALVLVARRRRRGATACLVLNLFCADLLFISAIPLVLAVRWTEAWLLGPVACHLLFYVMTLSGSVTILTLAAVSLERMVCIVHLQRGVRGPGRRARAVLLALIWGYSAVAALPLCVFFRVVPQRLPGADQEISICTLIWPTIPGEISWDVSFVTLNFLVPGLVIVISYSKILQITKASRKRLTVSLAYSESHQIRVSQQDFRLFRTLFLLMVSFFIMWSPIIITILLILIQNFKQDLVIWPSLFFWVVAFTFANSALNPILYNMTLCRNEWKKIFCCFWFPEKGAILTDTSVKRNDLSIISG
From the text: In Vitro Assay: Human GPR120 in Calcium Flux Assay
This in vitro assay serves to assess test compound agonist activity against the short splice variant (SVS with Accession number NM_001195755.1 confirmed by sequencing data) of the GPR120 receptor. The Human Short splice variant #2 (NM_001195755.1) is missing an in-frame coding exon compared to variant 1 (the Human Long splice variant NM_181745.3), resulting in a shorter isoform (GPR120-S) lacking a 16 aa protein segment compared to isoform GPR120-L. The assay platform utilizes HEK-293 cells stably transfected to express the Human GPR120 short form. These cells are first loaded with the Ca^+2 sensitive dye, Fluo-4 NW. Upon stimulation, intracellular released Ca^+2 can bind to the dye and alter its fluorescence intensity. This increase in fluorescence signal, and thus the flux in intracellular [Ca^2+], is detected and quantitated by fluorescence imaging using a FLIPR reader. The effect of the agonist is measured as a function of concentration and used to calculate an EC50 based upon a response curve. […]
In this procedure 4200 cells/well were employed.
A Human GPR120 clone (Genbank accession number NM_001195755.1) was placed into the pcDNA3.1 mammalian expression vector carrying the neomycin resistance gene. A stable mammalian cell was generated by placing the above clone into a HEK293 background. Clonal cells responding to long chain fatty acids had expression levels of GPR120 confirmed by RT-qPCR. Human HEK-GPR120 cells were cultured in Dulbecco's Modified Eagle's Medium (DMEM)/F12 medium supplemented with 10% fetal bovine serum (FBS), 1% L-Glutamine and 1% penicillin/streptomycin and 0.5 mg/ml G-418. Cells were split 2 times a week to keep the cells in the log-phase growth.
In preparation for the assay, HEK cells stably transfected with Human GPR120 (2.5K cells per well in 25 uL growth medium) were seeded into 384-well plates and then incubated overnight (37° C., 5% CO2). The next day, the media was changed to 20 μL assay buffer and the cell starved for 1 h at 37° C. The dye loading solution (2× dye) was prepared using 10 mL assay buffer, 100 μL of 250 mM probenecid, 1 bottle of Component A, and 20 μl of dye in DMSO. Twenty μL of the 2× dye loading buffer was then added to each well. The plates were incubated at 37° C. for 30 min, then at room temperature for an additional 15 minutes, before performing the assay on FLIPR.
The assay was performed on a FLIPR plate reader using the following parameters. Baseline was read for 10 seconds at 1 sec intervals. The program was set to transfer 10 μL of ligand from compound plate to cell plate after baseline reading. Aspiration was executed at: 10 μL/sec speed, 4.6 μL height; Dispensing was executed at: 30 μL/sec speed, 45 μL height. After compound addition, each well was read for 300 sec, with measurements collected at 1 sec intervals.
The kinetic data from the FLIPR was based upon a 5 minute window for data collection. The fluorescence of each sample well was used for individual calculations of a normalized RFU value, which was defined as maximum response minus the minimum response. The normalized fluorescence reading (RFU) was calculated as follows:
The data were fitted to a sigmoidal dose-response curve with a variable Hill slope (<2) using nonlinear regression with GraphPad Prism 5.0 to calculate the EC50 values. The Fitting Equation was: Y=Bottom+(Top−Bottom)/(1+10^((Log EC50−X)*HillSlope)), where X is the log of the concentration and Y is the response.

GPR40 = GPR40 (UniProt O14842); test: GPR40 Calcium Flux Assay; type: cell-based; conditions: transfected HEK293 cells stably expressing human or rat GPR40; species not given
Protocol: Biological Example 3: In Vitro Assay
Compounds were tested in a calcium flux assay using transfected HEK293 cells stably expressing either human GPR40 or rat GPR40. Human GPR40 expressing cells were cultured in DMEM-High Glucose media supplemented with 10% fetal bovine serum, 1×L-Glutamine, 1× Penicillin/Streptomycin and 500 μg/mL G418. Rat GPR40 expressing cells were cultured in DMEM-High Glucose media supplemented with 10% fetal bovine serum and 1 μg/mL puromycin. Cells were plated into poly-D-lysine coated 384-well plates and cultured overnight in a 37° C. humidified tissue culture incubator under 5% CO2/90% O2 atmosphere.
On the day of the experiment, the culture media was replaced with assay buffer (HBSS, 20 mM HEPES, 0.1% BSA) and the cells incubated at 37° C. for 1 h. Calcium-sensitive fluorescent dye (Fluo 8 No-Wash Calcium Dye, ABD Bioquest) was then added and the cells incubated for another 30 min at 37° C. followed by 15 min at room temperature while protected from the light. The cell plate and a plate of diluted compounds of Formula (I) were loaded into a fluorescent plate reader that added compounds onto the cells while measuring the fluorescence intensity of each well. The plate reader recorded fluorescence intensity at 1 second intervals for 8 min and provided the data for analysis in an Excel format. EC50 values were calculated using Prism (GraphPad) software.

SMILES	EC50 [1] [nM]	EC50 (GPR40) [nM]
Cc1c(CCC(=O)O)ccc(OCC2=C(c3cccnc3)CCOC2)c1C [compound 654]	> 5000	
Cc1ccc(C2=C(COc3ccc(CCC(=O)O)c(C)c3C)COCC2)cc1 [compound 655]	94	
Cc1ccc(C2=C(COc3ccc(CCC(=O)O)c(C)c3C)COCC2)cc1F [compound 659]	66	> 10000
Cc1c(CCC(=O)O)ccc(OCC2=C(c3ccc(F)cc3F)CCOC2)c1C [compound 660]	149	
Cc1c(CCC(=O)O)ccc(OCC2=C(c3ccc(Cl)c(F)c3)CCOC2)c1C [compound 663]	170	
COc1cc(C2=C(COc3ccc(CCC(=O)O)c(C)c3C)COCC2)ccc1Cl [compound 664]	> 5000	
Cc1ccc(C2=C(COc3cc(C(F)(F)F)c(CCC(=O)O)c(C(F)(F)F)c3)COCC2)cc1 [compound 666]	2750	
Cc1c(CCC(=O)O)ccc(OCC2=C(c3ccc(Cl)cc3F)CCOC2)c1C [compound 667]	115	
Cc1ccc(C2=C(COc3ccc(CCC(=O)O)c(C(F)(F)F)c3)COCC2)cc1 [compound 668]	498	
Cc1cccc(C)c1C1=C(COc2ccc(CCC(=O)O)c(C(F)(F)F)c2)COCC1 [compound 671]	> 5000	
O=C(O)CCc1ccc(OCC2=C(c3ccc(Cl)c(Cl)c3)CCOC2)cc1C(F)(F)F [compound 680]	2630	
Cc1ccc(C2=C(COc3ccc(CCC(=O)O)c(C(F)(F)F)c3)COCC2)cc1F [compound 685]	970	829
O=C(O)CCc1ccc(OCC2=C(Cc3ccccc3)CCOC2)cc1 [compound 688]	2940	3250
Cc1ccc(CC2=C(COc3ccc(CCC(=O)O)c(C(F)(F)F)c3)COCC2)cc1 [compound 692]	> 5000	324
COc1ccc(CC2=C(COc3ccc(CCC(=O)O)c(C(F)(F)F)c3)COCC2)cc1 [compound 698]	> 5000	335
C=C(C1=C(COc2ccc(CCC(=O)O)cc2)COCC1)c1ccccc1 [compound 699]	> 5000	1740
C=C(C1=C(COc2ccc(CCC(=O)O)cc2)COCC1)c1ccc(F)cc1 [compound 702]	> 5000	1560
C=C(C1=C(COc2ccc(CCC(=O)O)c(C(F)(F)F)c2)COCC1)c1ccc(F)cc1 [compound 703]	> 5000	68
C=C(C1=C(COc2ccc(CCC(=O)O)c(C(F)(F)F)c2)COCC1)c1ccc(C(F)(F)F)cc1 [compound 705]	> 5000	73

Other lines, results leading:

EC50 [1] [nM]	EC50 (GPR40) [nM]	SMILES
> 5000		Cc1cc(CCC(=O)O)ccc1OCC1=C(c2ccc(F)cc2)C[S+]([O-])C1 (stereo not drawn) [compound 627]
229		Cc1cc(CCC(=O)O)ccc1OCC1=C(c2ccccc2)COC1 [compound 630]
422	2580	O=C(O)CCc1ccc(OCC2=C(C3CCCC3)COC2)cc1 [compound 632]
202		Cc1c(CCC(=O)O)ccc(OCC2=C(c3ccccc3F)CCOC2)c1C [compound 651]
868		COc1cccc(C2=C(COc3ccc(CCC(=O)O)c(C)c3C)COCC2)c1 [compound 656]
527		Cc1cc(C2=C(COc3ccc(CCC(=O)O)c(C)c3C)COCC2)ccc1F [compound 661]
2200		COc1cc(Cl)ccc1C1=C(COc2ccc(CCC(=O)O)c(C)c2C)COCC1 [compound 662]
832		Cc1ccc(C2=C(COc3ccc(CCC(=O)O)c(C(F)F)c3)COCC2)cc1 [compound 665]
> 5000		Cc1cccc(C)c1C1=C(COc2ccc(CCC(=O)O)c(Cl)c2)COCC1 [compound 669]
> 5000		CC1(C)CCC=C1C1=C(COc2ccc(CCC(=O)O)c(C(F)(F)F)c2)COCC1 [compound 670]
> 5000		O=C(O)CCc1ccc(OCC2=C(c3cccc4c3OC(F)(F)O4)CCOC2)cc1C(F)(F)F [compound 673]
> 5000		O=C(O)CCc1ccc(OCC2=C(c3ccccc3OC(F)(F)F)CCOC2)cc1C(F)(F)F [compound 674]
> 5000		COc1ccccc1C1=C(COc2ccc(CCC(=O)O)c(C(F)(F)F)c2)COCC1 [compound 676]
> 5000		CC(C)Oc1ccccc1C1=C(COc2ccc(CCC(=O)O)c(C(F)(F)F)c2)COCC1 [compound 677]
> 5000		O=C(O)CCc1ccc(OCC2=C(Cc3ccccc3)CCOC2)cc1C(F)(F)F [compound 678]
1920		Cc1cc(C2=C(COc3ccc(CCC(=O)O)c(C(F)(F)F)c3)COCC2)ccc1Cl [compound 679]
> 5000		Cc1cc(C)c(C2=C(COc3ccc(CCC(=O)O)c(C(F)(F)F)c3)COCC2)cc1C [compound 681]
> 5000		Cc1cc(Cl)ccc1C1=C(COc2ccc(CCC(=O)O)c(C(F)(F)F)c2)COCC1 [compound 682]
1060		Cc1ccc(C2=C(COc3ccc(CCC(=O)O)c(C(F)(F)F)c3)COCC2)cc1C [compound 683]
786	2700	Cc1ccc(C2=C(COc3ccc(CCC(=O)O)c(C(F)(F)F)c3)COCC2)c(F)c1 [compound 684]
> 5000	740	O=C(O)CCc1ccc(OCC2=C(c3ccc(OC(F)(F)F)cc3)CCOC2)cc1C(F)(F)F [compound 686]
> 5000	54	C=C(C1=C(COc2ccc(CCC(=O)O)c(C(F)(F)F)c2)COCC1)c1ccccc1 [compound 687]
2400	3620	Cc1ccc(CC2=C(COc3ccc(CCC(=O)O)cc3)COCC2)cc1 [compound 691]
> 5000	3190	O=C(O)CCc1ccc(OCC2=C(Cc3ccc(Cl)cc3)CCOC2)cc1 [compound 695]
> 5000	218	O=C(O)CCc1ccc(OCC2=C(Cc3ccc(Cl)cc3)CCOC2)cc1C(F)(F)F [compound 696]
> 5000	~18900	COc1ccc(CC2=C(COc3ccc(CCC(=O)O)cc3)COCC2)cc1 [compound 697]
> 5000	145	CC(C1=C(COc2ccc(CCC(=O)O)c(C(F)(F)F)c2)COCC1)c1ccccc1 (stereo not drawn) [compound 701]
> 5000	38	C=C(C1=C(COc2ccc(CCC(=O)O)c(C(F)(F)F)c2)COCC1)c1ccccc1Cl [compound 706]

— patent publication US20210024483A1, “HETEROCYLCOALKENYL DERIVATIVES USEFUL AS AGONISTS OF THE GPR120 AND / OR GPR40” (Janssen Pharmaceutica NV, priority 2018, published 2021)
